Test results taken from ChEMBL document CHEMBL5728026, “Indole derivative used as CRTH2 inhibitor” (2020).

Molecular target: T1, Prostaglandin D2 receptor 2 (Homo sapiens, UniProt Q9Y5Y4)
T1 sequence (Q9Y5Y4 whole entry): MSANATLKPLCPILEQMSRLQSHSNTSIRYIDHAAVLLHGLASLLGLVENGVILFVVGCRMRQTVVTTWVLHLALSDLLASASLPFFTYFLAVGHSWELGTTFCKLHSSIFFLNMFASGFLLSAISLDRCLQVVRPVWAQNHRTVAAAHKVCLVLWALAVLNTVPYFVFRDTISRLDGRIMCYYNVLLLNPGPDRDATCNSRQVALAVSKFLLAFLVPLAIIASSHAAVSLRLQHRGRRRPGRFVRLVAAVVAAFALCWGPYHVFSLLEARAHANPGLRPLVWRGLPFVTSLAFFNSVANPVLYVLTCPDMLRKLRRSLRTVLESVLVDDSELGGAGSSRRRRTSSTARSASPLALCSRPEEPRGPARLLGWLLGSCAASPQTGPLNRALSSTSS
Test: Biological Activity Assay: Experimental Method:PathHunter CHO-K1 CRTH2 β-arrestin cells (DiscoverX, catalogue number 93-0291C2) grew under standard conditions, and were inoculated into a white-wall 384-well microplate at a density of 5,000 cells/well. 20 μL of Cell Plating Reagent 1 was used in each well. Before the test, the cells were incubated overnight at 37° C./5% CO2. A test compound was serially diluted in DMSO with a dilution factor of 3-fold to give 8 concentrations of the test compound. Shortly before the test, the serially diluted test compound was further diluted with the test buffer to 5 times of the test concentration. 5 μL of the further diluted test compound was added to the cells, and the cells were incubated for 30 min at 37° C. The concentration of the solvent was 1%. 5 μL of 6×EC80 agonist (PGD2) buffer was added to the cells, and the cells were incubated for 90 min at 37° C. Measured signals were generated by one-time addition of 15 μL (50% v/v) of PathHunter detection mixture reagent and subsequent one-hour incubation. The microplate was read through the chemiluminescent signals of PerkinElmer Envision™ reader. Biological activity of the test compound was analyzed by CBIS data analysis suite (ChemInnovation, CA), and was denoted as IC50 value.

Structure (SMILES)	IC50 [nM]
Cc1c(C2=CS(=O)(=O)c3cc(C(F)(F)F)ccc32)c2cc(F)ccc2n1CC(=O)O	< 100
Cc1c(Cc2ccc3c(c2)CCS3(=O)=O)c2cc(NC(=O)C3CC3)ccc2n1CC(=O)O	> 1000
Cc1c(C2=CS(=O)(=O)c3cc(Cl)ccc32)c2cc(F)ccc2n1CC(=O)O	< 100
Cc1c(Cc2cc3c(cc2C(F)(F)F)S(=O)(=O)N(C)CN3C)c2cc(F)ccc2n1CC(=O)O	< 100
Cc1c(Cc2ccc3c(c2)C(F)(F)CN(C)S3(=O)=O)c2cc(F)ccc2n1CC(=O)O	< 100
Cc1c(Cc2ccc3c(c2)CCS3(=O)=O)c2ccc(C(F)(F)F)cc2n1CC(=O)O	> 1000
O=C(O)Cn1c(-c2ccccc2)c(Cc2ccc3c(c2)CCS3(=O)=O)c2ccccc21	> 1000
Cc1c(Cc2ccc3c(c2)C(F)(F)CCS3(=O)=O)c2cc(F)ccc2n1Cc1nn[nH]n1	> 1000
Cc1c(Cc2ccc3c(c2)C(F)(F)CCS3(=O)=O)c2cccnc2n1CC(=O)O	> 1000
CC1=Nc2cc(Cc3c(C)n(CC(=O)O)c4ccc(F)cc34)ccc2S(=O)(=O)N1	< 100
Cc1c(Cc2ccc3c(c2)N(C)CN(C)S3(=O)=O)c2cc(F)ccc2n1CC(=O)O	< 100
Cc1c(C2=CS(=O)(=O)c3cc(-c4cc(F)cc(Cl)c4)ccc32)c2cc(F)ccc2n1CC(=O)O	< 100
Cc1c(Cc2ccc3c(c2)C(C)(C)CS3(=O)=O)c2cc(F)ccc2n1CC(=O)O	< 100

Next, values leading:

IC50 [nM]	Structure (SMILES)
< 100	Cc1c(C2=CS(=O)(=O)c3ccccc32)c2cc(F)ccc2n1CC(=O)O
< 100	Cc1c(C2=CS(=O)(=O)c3ccccc32)c2ccc(Cl)cc2n1CC(=O)O
< 100	Cc1c(C2=CCS(=O)(=O)c3ccccc32)c2cc(F)ccc2n1CC(=O)O
< 100	Cc1c(Cc2ccc3c(c2)C(F)(F)CCS3(=O)=O)c2cc(F)ccc2n1CC(=O)O
> 1000	Cc1c(Cc2ccc3c(c2)C(F)(F)CCS3(=O)=O)c2cnccc2n1CC(=O)O
< 100	Cc1c(Cc2ccc3c(c2)CNS3(=O)=O)c2cc(F)ccc2n1CC(=O)O
> 1000	Cc1c(C2=CS(=O)(=O)c3ccc(F)cc32)c2cc(F)ccc2n1CC(=O)O
< 100	Cc1c(Cc2ccc3c(c2)N=CN(C)S3(=O)=O)c2cc(F)ccc2n1CC(=O)O
